Where two headings read alike, the source gives them in different places.
Key:
Zr-75-1 = assay: SRB assay, breast cancer cell line Zr-75-1; format: cell-based; settings: Homo sapiens, read-out: In vitro anticancer activity GI50, Breast Zr-75-1
Procedure: (§1) Single cell suspension of the tumour cells grown in tissue culture were made, cells counted and cell count adjusted to 1×10^5 to 5×10^5 cells/ml. Ninety six (96) well plates were seeded with this cell suspension, each well receiving 100 μl of it. The plate was then be incubated at 37° C. temperature in CO2 incubator for 24 hours. Drugs were added at concentrations after 24-hour incubation followed by further incubation for 48 hours. Experiment was terminated by gently layering the cells in the wells with 30% TCA and plates were kept in refrigerator for 1 hour following which they were washed thoroughly with tap water, dried attained with 0.4% SRB in 1% acetic aid and finally, the bound SRB eluted with 10 mM tris. Absorbance was read at 540 nm, in the microtitre-plate reader. Optical density of drug-treated cells was compared with that of control cells and cell inhibition was calculated as percent values. Each compound was tested at 10, 20, 40 and 80 μg/ml in triplicate on human malignant cell lines.

DWD = assay: SRB assay, oral cancer cell line DWD; format: cell-based; settings: Homo sapiens, read-out: In vitro anticancer activity GI50, Oral DWD
Procedure: as §1

Gurav = assay: SRB assay, oral cancer cell line Gurav; format: cell-based; settings: Homo sapiens, read-out: In vitro anticancer activity GI50, Oral Gurav
Procedure: as §1

A-2780 = assay: SRB assay, ovarian cancer cell line A-2780; format: cell-based; settings: Homo sapiens, read-out: In vitro anticancer activity GI50, Ovarian A-2780
Procedure: as §1

Colo205 = assay: SRB assay, colon cancer cell line Colo205; format: cell-based; settings: Homo sapiens, read-out: In vitro anticancer activity GI50, Colon Colo205
Procedure: as §1

MCF7 = assay: SRB assay, breast cancer cell line MCF7; format: cell-based; settings: Homo sapiens, read-out: In vitro anticancer activity GI50, Breast MCF7
Procedure: as §1

Hop62 = assay: SRB assay, lung cancer cell line Hop62; format: cell-based; settings: Homo sapiens, read-out: In vitro anticancer activity GI50, Lung Hop62
Procedure: as §1

KB = assay: SRB assay, oral cancer cell line KB; format: cell-based; settings: Homo sapiens, read-out: In vitro anticancer activity GI50, Oral KB
Procedure: as §1

A-549 = assay: SRB assay, lung cancer cell line A-549; format: cell-based; settings: Homo sapiens, read-out: In vitro anticancer activity GI50, Lung A-549
Procedure: as §1

[1] = SRB assay, 48 hours drug exposure

Row | SMILES | GI50 (Zr-75-1; ZR-75-1, 48 h) | GI50 (DWD; 48 h) | GI50 (Gurav; 48 h) | GI50 (A-2780; A2780, 48 h) | GI50 (Colo205; COLO 205, 48 h) | melting point | GI50 (MCF7; MCF7, 48 h) | GI50 (Hop62; HOP-62, 48 h) | GI50 (KB; 48 h) | GI50 (A-549; A549, 48 h) | GI50 (Hop62; HOP-62, SRB assay, 48 hours drug exposure) | GI50 (A-549; A549, SRB assay, 48 hours drug exposure) | GI50 (Zr-75-1; ZR-75-1, SRB assay, 48 hours drug exposure) | GI50 (KB; [1]) | GI50 (DWD; [1]) | GI50 (Gurav; [1]) | GI50 (A-2780; A2780, SRB assay, 48 hours drug exposure) | GI50 (Colo205; COLO 205, SRB assay, 48 hours drug exposure) | GI50 (MCF7; MCF7, SRB assay, 48 hours drug exposure)
1 | COc1ccc(/C=C(/C(=O)N[C@@H]2c3cc4c(cc3[C@@H](c3cc(OC)c(OC)c(OC)c3)[C@H]3C(=O)OC[C@@H]32)OCO4)c2cc(OC)c(OC)c(OC)c2)cc1 [Compound 3n, 4β-(E)-3-(4-methoxyphenyl)-2-(3,4,5-trimethoxyphenyl)acrylamidopodophyllotoxin] | 2900 nM | 2300 nM | 2200 nM | 2500 nM | 170 nM | 128 to 130 °C | 2900 nM | – | – | – | – | – | – | – | – | – | – | – | –
2 | COc1cc(/C(=C\c2ccc(O)c([N+](=O)[O-])c2)C(=O)N[C@@H]2c3cc4c(cc3[C@@H](c3cc(OC)c(OC)c(OC)c3)[C@H]3C(=O)OC[C@@H]32)OCO4)cc(OC)c1OC [Compound 3g, 4β-(E)-3-(4-hydroxy-3-nitrophenyl)-2-(3,4,5-trimethoxyphenyl)acrylamidopodophyllotoxin] | 180 nM | < 100 nM | 190 nM | 2200 nM | 2000 nM | – | 2700 nM | 190 nM | 2200 nM | – | – | – | – | – | – | – | – | – | –
3 | COc1cc(/C=C(/C(=O)N[C@@H]2c3cc4c(cc3[C@@H](c3cc(OC)c(OC)c(OC)c3)[C@H]3C(=O)OC[C@@H]32)OCO4)c2cc(OC)c(OC)c(OC)c2)ccc1F [Compound 3c, 4β-(E)-3-(4-fluoro-3-methoxyphenyl)-2-(3,4,5-trimethoxyphenyl)acrylamidopodophyllotoxin] | 2200 nM | – | 2400 nM | – | – | 144 to 146 °C | – | 2500 nM | – | – | – | – | – | – | – | – | – | – | –
4 | COc1ccc(/C=C(/C(=O)N[C@@H]2c3cc4c(cc3[C@@H](c3cc(OC)c(OC)c(OC)c3)[C@H]3C(=O)OC[C@@H]32)OCO4)c2cc(OC)c(OC)c(OC)c2)c(F)c1 [Compound 3f, 4β-(E)-3-(2-fluoro-4-methoxyphenyl)-2-(3,4,5-trimethoxyphenyl)acrylamidopodophyllotoxin] | 2500 nM | 190 nM | 180 nM | 2700 nM | – | 123 to 125 °C | 2400 nM | 170 nM | 2600 nM | 2100 nM | – | – | – | – | – | – | – | – | –
5 | COc1cc(/C(=C\c2ccccc2[N+](=O)[O-])C(=O)N[C@@H]2c3cc4c(cc3[C@@H](c3cc(OC)c(OC)c(OC)c3)[C@H]3C(=O)OC[C@@H]32)OCO4)cc(OC)c1OC [Compound 3k, 4β-(E)-3-(2-nitrophenyl)-2-(3,4,5-trimethoxyphenyl)acrylamidopodophyllotoxin] | 2500 nM | – | – | 2300 nM | – | 197 to 200 °C | – | 2700 nM | 2700 nM | 2500 nM | – | – | – | – | – | – | – | – | –
6 | COc1ccccc1/C(=C\c1ccccc1[N+](=O)[O-])C(=O)N[C@@H]1c2cc3c(cc2[C@@H](c2cc(OC)c(OC)c(OC)c2)[C@H]2C(=O)OC[C@@H]21)OCO3 [Compound 3m, 4β-(E)-2-(2-methoxyphenyl)-3-(2-nitrophenyl)acrylamidopodophyllotoxin] | 2200 nM | 2300 nM | 2200 nM | 2200 nM | – | 187 to 190 °C | 2800 nM | 2100 nM | 2500 nM | < 100 nM | – | – | – | – | – | – | – | – | –
7 | COc1ccccc1/C(=C\c1ccc([N+](=O)[O-])cc1)C(=O)N[C@@H]1c2cc3c(cc2[C@@H](c2cc(OC)c(OC)c(OC)c2)[C@H]2C(=O)OC[C@@H]21)OCO3 [Compound 3l, 4β-(E)-2-(2-methoxyphenyl)-3-(4-nitrophenyl)acrylamidopodophyllotoxin] | 2100 nM | 2300 nM | 2100 nM | 2300 nM | – | 181 to 183 °C | 2700 nM | 2000 nM | 2400 nM | < 100 nM | – | – | – | – | – | – | – | – | –
8 | COc1cc(/C=C(/C(=O)N[C@@H]2c3cc4c(cc3[C@@H](c3cc(OC)c(OC)c(OC)c3)[C@H]3C(=O)OC[C@@H]32)OCO4)c2cc(OC)c(OC)c(OC)c2)ccc1O [Compound 3a, 4β-(E)-3-(4-hydroxy-3-methoxyphenyl)-2-(3,4,5-trimethoxyphenyl)acrylamidopodophyllotoxin] | – | – | – | – | – | 134 to 137 °C | – | 2500 nM | – | 2400 nM | – | – | – | – | – | – | – | – | –
9 | COc1cc(/C(=C\c2ccc(O)cc2)C(=O)N[C@@H]2c3cc4c(cc3[C@@H](c3cc(OC)c(OC)c(OC)c3)[C@H]3C(=O)OC[C@@H]32)OCO4)cc(OC)c1OC [Compound 3p, 4β-(E)-3-(4-hydroxyphenyl)-2-(3,4,5-trimethoxyphenyl)acrylamidopodophyllotoxin] | 2700 nM | 2700 nM | 2700 nM | – | – | 137 to 140 °C | – | 2600 nM | 2600 nM | 2300 nM | – | – | – | – | – | – | – | – | –
10 | COc1cc(/C(=C\c2ccc([N+](=O)[O-])cc2)C(=O)N[C@@H]2c3cc4c(cc3[C@@H](c3cc(OC)c(OC)c(OC)c3)[C@H]3C(=O)OC[C@@H]32)OCO4)cc(OC)c1OC [Compound 3i, 4β-(E)-3-(4-nitrophenyl)-2-(3,4,5-trimethoxyphenyl)acrylamidopodophyllotoxin] | 2200 nM | 2400 nM | 2100 nM | 2600 nM | 2100 nM | 187 to 190 °C | – | 2700 nM | – | – | – | – | – | – | – | – | – | – | –
11 | COc1cccc(/C=C(/C(=O)N[C@@H]2c3cc4c(cc3[C@@H](c3cc(OC)c(OC)c(OC)c3)[C@H]3C(=O)OC[C@@H]32)OCO4)c2cc(OC)c(OC)c(OC)c2)c1 [Compound 3o, 4β-(E)-3-(3-methoxyphenyl)-2-(3,4,5-trimethoxyphenyl)acrylamidopodophyllotoxin] | 180 nM | 2200 nM | 2100 nM | < 100 nM | – | 187 to 190 °C | 2700 nM | 180 nM | 2100 nM | < 100 nM | – | – | – | – | – | – | – | – | –
12 | COc1ccc(/C=C(/C(=O)N[C@@H]2c3cc4c(cc3[C@@H](c3cc(OC)c(OC)c(OC)c3)[C@H]3C(=O)OC[C@@H]32)OCO4)c2cc(OC)c(OC)c(OC)c2)cc1[N+](=O)[O-] [Compound 3h, 4β-(E)-3-(4-methoxy-3-nitrophenyl)-2-(3,4,5-trimethoxyphenyl)acrylamidopodophyllotoxin] | 2200 nM | 2900 nM | 2600 nM | 2500 nM | 2700 nM | 140 to 143 °C | – | 2300 nM | – | – | – | – | – | – | – | – | – | – | –
13 | COc1cc(/C(=C\c2cccc([N+](=O)[O-])c2)C(=O)N[C@@H]2c3cc4c(cc3[C@@H](c3cc(OC)c(OC)c(OC)c3)[C@H]3C(=O)OC[C@@H]32)OCO4)cc(OC)c1OC [Compound 3j, 4β-(E)-3-(3-nitrophenyl)-2-(3,4,5-trimethoxyphenyl)acrylamido podophyllotoxin] | – | < 100 nM | 2100 nM | 2500 nM | – | 181 to 184 °C | 2700 nM | 170 nM | – | 2400 nM | – | – | – | – | – | – | – | – | –
14 | COc1ccc(/C=C(/C(=O)N[C@@H]2c3cc4c(cc3[C@@H](c3cc(OC)c(OC)c(OC)c3)[C@H]3C(=O)OC[C@@H]32)OCO4)c2cc(OC)c(OC)c(OC)c2)cc1O [Compound 3b, 4β-(E)-3-(3-hydroxy-4-methoxyphenyl)-2-(3,4,5-trimethoxyphenyl)acrylamido podophyllotoxin] | – | – | – | – | – | 145 to 147 °C | – | 2900 nM | – | 2900 nM | – | – | – | – | – | – | – | – | –
15 | COc1ccc(F)c(/C=C(/C(=O)N[C@@H]2c3cc4c(cc3[C@@H](c3cc(OC)c(OC)c(OC)c3)[C@H]3C(=O)OC[C@@H]32)OCO4)c2cc(OC)c(OC)c(OC)c2)c1 [Compound 3e, 4β-(E)-3-(2-fluoro-5-methoxyphenyl)-2-(3,4,5-trimethoxyphenyl)acrylamidopodophyllotoxin] | 2700 nM | – | 2500 nM | – | – | 123 to 126 °C | – | – | – | – | – | – | – | – | – | – | – | – | –
16 | COc1cccc2c1C(=O)c1c(O)c3c(c(O)c1C2=O)C[C@@](O)(C(=O)CO)C[C@@H]3O[C@H]1C[C@H](N)[C@H](O)[C@H](C)O1 [ADR, adriamycin, reference compound] | – | – | – | – | – | – | – | – | – | – | 150 nM | < 100 nM | 110 nM | 130 nM | 100 nM | < 100 nM | < 100 nM | < 100 nM | 130 nM

From US8673969B2, “Substituted 4-β-acrylamidopodophyllotoxin congeners as antitumour antibiotics and the process for preparation thereof” (Council of Scientific & Industrial Research, priority 2010, dated 2014)
